# Laboratory results as given in US9034854B2, “Pharmaceutical composition comprising estetrol derivatives for use in cancer therapy” (priority 2002, dated 2015).
# Experiments:
# [1] = tested on: DMBA-induced mammary tumours; assay: DMBA-induced tumour model in rats, prevention (Example 3); format: in vivo, rat; conditions: 8 weeks
# [2] = tested on: pre-existing DMBA-induced mammary tumours; assay: DMBA-induced tumour model in rats, therapeutic design, pre-existing tumours (Example 5); format: in vivo, rat
# Experimental: As set forth in example 3, female Sprague-Dawley rats were given 16 mg DMBA at the age of 50 days. Mammary tumour development was allowed to proceed until week 8 after DMBA treatment. Animals were subsequently allocated to one of six groups, receiving 4 weeks daily oral treatment with placebo, tamoxifen or estetrol as follows: • Group 1 animals received placebo treatment with a single daily dose of 3.0 ml/kg vehicle (20% wt/vol solution of hydroxypropyl-beta-cyclodextrin in water); • Group 2 animals were surgically castrated and received placebo treatment with 3.0 ml/kg/day vehicle; • Group 3 animals received tamoxifen at a dose of 1 mg/kg; • Group 4 animals received estetrol at a dose of 1.0 mg/kg; • Group 5 animals received estetrol at a dose of 3.0 mg/kg; • Group 6 animals received estetrol at a dose of 10.0 mg/kg. […] During therapy, the progression or disappearance of palpable mammary tumours and the size of the tumours were determined weekly. At necropsy, tumours were counted, measured and the change from baseline at the start of treatment was calculated.
# [3] = tested on: DMBA-induced mammary tumours; assay: Second DMBA trial in rats, dose-response prevention study (Example 4); format: in vivo, rat; conditions: 8 weeks
# Excerpt: Estetrol and tamoxifen were subsequently tested in a second DMBA trial in rats to evaluate the dose-response relationships in preventing rats from developing mammary tumours. The experimental procedure as set forth in example 3 was used as a prevention study to treat the animals (12 animals per group) for 8 consecutive weeks after tumour induction with oral dosages of either estetrol or tamoxifen. DMBA-exposed rats were randomly assigned to treatment groups, receiving oral treatment as follows: • Group 1 animals received placebo oral treatment in the form of a single daily dose of 3.0 ml/kg vehicle (20% wt/vol solution of hydroxypropyl-beta-cyclodextrin in water); • Group 2 animals received tamoxifen orally at a single daily dose of 1 mg/kg; • Group 3 animals received tamoxifen orally at a single daily dose of 2 mg/kg; • Group 4 animals received tamoxifen orally at a single daily dose of 3 mg/kg; • Group 5 animals received estetrol orally at a single daily dose of 0.5 mg/kg; • Group 6 animals received estetrol orally at a single daily dose of 1.0 mg/kg; • Group 7 animals received estetrol orally at a single daily dose of 1.5 mg/kg; • Group 8 animals received estetrol orally at a single daily dose of 2.0 mg/kg; • Group 9 animals received estetrol orally at a single daily dose of 2.5 mg/kg; and • Group 10 animals received estetrol orally at a single daily dose of 3.0 mg/kg
# During the treatment period of 8 weeks, the emergence of palpable tumours and number of tumours were determined weekly. The number of mammary tumours at necropsy is depicted in FIG. 2.
# human ERα = human ERα (Homo sapiens (Human), UniProt P03372); assay: Competitive steroid binding assay, ERα
# Chain of human ERα (P03372 whole entry): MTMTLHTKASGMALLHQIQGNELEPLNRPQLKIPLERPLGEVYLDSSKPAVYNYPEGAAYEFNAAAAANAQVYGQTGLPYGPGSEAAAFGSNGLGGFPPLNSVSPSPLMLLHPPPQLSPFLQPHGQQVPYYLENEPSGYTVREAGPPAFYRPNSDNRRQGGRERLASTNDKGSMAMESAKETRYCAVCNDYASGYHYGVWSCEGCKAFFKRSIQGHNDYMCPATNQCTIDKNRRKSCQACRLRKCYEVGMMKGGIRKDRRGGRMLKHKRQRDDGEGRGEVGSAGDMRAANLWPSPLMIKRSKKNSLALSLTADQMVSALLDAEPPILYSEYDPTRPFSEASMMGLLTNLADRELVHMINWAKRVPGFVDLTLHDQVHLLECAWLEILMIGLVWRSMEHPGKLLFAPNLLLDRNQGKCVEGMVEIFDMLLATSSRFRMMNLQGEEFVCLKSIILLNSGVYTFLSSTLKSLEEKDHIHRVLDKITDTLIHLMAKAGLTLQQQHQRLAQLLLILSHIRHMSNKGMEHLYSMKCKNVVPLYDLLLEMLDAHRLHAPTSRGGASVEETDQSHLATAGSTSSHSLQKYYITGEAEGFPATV
# human ERβ = human ERβ (Homo sapiens (Human), UniProt Q92731); assay: Competitive steroid binding assay, ERβ
# Chain of human ERβ (Q92731 whole entry): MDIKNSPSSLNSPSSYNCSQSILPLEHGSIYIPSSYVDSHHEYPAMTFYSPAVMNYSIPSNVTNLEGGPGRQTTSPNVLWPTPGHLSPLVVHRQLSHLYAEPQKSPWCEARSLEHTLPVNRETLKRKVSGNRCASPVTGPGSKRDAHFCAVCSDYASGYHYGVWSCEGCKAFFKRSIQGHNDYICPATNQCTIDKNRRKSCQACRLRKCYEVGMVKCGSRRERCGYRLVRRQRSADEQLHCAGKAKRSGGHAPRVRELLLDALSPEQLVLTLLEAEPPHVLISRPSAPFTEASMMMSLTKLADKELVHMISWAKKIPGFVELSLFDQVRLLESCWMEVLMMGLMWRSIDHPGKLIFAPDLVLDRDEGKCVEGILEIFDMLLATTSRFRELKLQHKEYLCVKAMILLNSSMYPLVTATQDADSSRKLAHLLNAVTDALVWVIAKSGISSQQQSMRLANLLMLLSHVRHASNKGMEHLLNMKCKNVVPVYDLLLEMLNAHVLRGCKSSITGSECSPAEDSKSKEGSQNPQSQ
# [4] = Single rising oral dose study in healthy postmenopausal volunteers; format: in vivo, human
# Experimental: To determine the bioavailability and elimination half-life of estetrol after oral dosing in humans a single rising dosing study was performed in healthy postmenopausal volunteers. Volunteers (n=6) were randomly assigned to 0.1, 1 or 10 mg estetrol and blood samples (18 per volunteer) were obtained over a period of 72 hours. After thawing the plasma samples, liquid-liquid extraction (hexane and diethyl ether) was employed to prepare the estetrol-containing plasma samples for HPLC analysis (Perkin is Elmer 200) and tandem mass spectrometry using a PE Sciex 4000 tandem mass spectrometer and APCI interface. With each sample batch, a calibration curve with 6 calibrators was recorded.
# [5] = Previous studies: agonistic models of bone resorption, hot flushing and vaginal cornification; format: in vivo; conditions: vaginal cornification
# Excerpt: Eighty-four female Sprague-Dawley rats (Harlan, The Netherlands) were group housed, maintained in a 12-hr light/dark environment, and fed a Soya Free Diet (SDS England) and water ad libitum. Animals were weighed on a weekly basis.
# [6] = tested on: cultured endothelial cells of human umbilical cord veins; conditions: cited from earlier work
# [7] = tested on: AP-1 site in the presence of ERβ; conditions: cited from earlier work
# [8] = tested on: AP-1 site in the presence of ERα; conditions: cited from earlier work
structure (smiles),measurement,setting,value
"C[C@]12CC[C@@H]3c4ccc(O)cc4CC[C@H]3[C@@H]1[C@@H](O)[C@@H](O)[C@@H]2O [E4, 1,3,5 (10)-estratrien-3,15α,16α,17β-tetrol]",Efficacy in preventing growth of DMBA-induced tumours relative to tamoxifen,[1]; E4 […] vs tamoxifen 3 mg/kg/day orally,as effective as tamoxifen
same,Tumour number at necropsy,"[2]; estetrol 1 mg/kg/day orally 4 weeks, n=9, 16 at start of treatment",23
same,Tumour number at necropsy,"[2]; estetrol 3 mg/kg/day orally 4 weeks, n=9, 16 at start of treatment",15
same,Tumour number at necropsy,"[2]; estetrol 10 mg/kg/day orally 4 weeks, n=10, 18 at start of treatment",7
same,"Tumour size, percentage change from baseline, net group effect","[2]; estetrol 1, 3, 10 mg/kg/day orally 4 weeks",dose dependent pronounced tumour size reduction
same,"Efficacy, net disappearance of mammary tumours","[2]; estetrol orally 4 weeks, started 8 weeks after DMBA",comparable to ovariectomy
same,Mammary tumour formation,[3]; estetrol 0.5-3.0 mg/kg/day orally,dose-dependent inhibition of mammary tumour formation
same,Protection from developing tumours,[3]; estetrol 2.5 and 3.0 mg/kg/day orally,completely protected rats from developing tumours
same,Ki,human ERα,4.9 nM
same,Relative ERα/ERβ preference,human ERα; preference for binding to ERα protein versus ERβ protein,400%
same,Ki,human ERβ,19 nM
same,half-life,"[4]; female, human, plasma, po, oral dosing, human postmenopausal subjects, read-out: Elimination half-life",> 20 h
same,"AUC values, dose-linearity","[4]; oral 0.1, 1, 10 mg, plasma",good dose-linearity
same,Tolerability,"[4]; oral dose increased from 0.1 to 1 and 10 mg, postmenopausal volunteers",Good tolerability
same,Oral absorption,[4]; over the entire dose range 0.1-10 mg oral,well absorbed
same,"In vivo estrogenicity, relative potency","[5]; 0.125 mg/kg/day EE vs […] E4, hot flushing",equipotency
same,"In vivo estrogenicity, relative potency","[5]; […] EE vs 0.5 mg/kg/day E4, hot flushing",equipotency
same,Effect on proliferation of vascular endothelial cells,[6],No significant effect
O=C(c1ccc(OCCN2CCCCC2)cc1)c1c(-c2ccc(O)cc2)sc2cc(O)ccc12 [raloxifene],Effect on AP-1 site,[7],stimulate
same,Effect on AP-1 site,[8],inhibit
"C[C@]12CC[C@@H]3c4ccc(O)cc4C[C@@H](CCCCCCCCC[S+]([O-])CCCC(F)(F)C(F)(F)F)[C@H]3[C@@H]1CC[C@@H]2O (stereo partly shown) [ICI-182,780]",Effect on AP-1 site,[7],stimulate
same,Effect on AP-1 site,[8],inhibit
"C[C@]12CC[C@@H]3c4ccc(O)cc4CC[C@H]3[C@@H]1CC[C@@H]2O [E2, 17β-estradiol]",Effect on AP-1 site,[7],inhibits
same,Effect on AP-1 site,[8],activates
"CC/C(=C(\c1ccccc1)c1ccc(OCCN(C)C)cc1)c1ccccc1 [tamoxifen, reference compound]",Effect on AP-1 site,[7],stimulate
same,Effect on AP-1 site,[8],inhibit
same,Development of mammary tumours,[1]; tamoxifen 3 mg/kg/day orally,inhibiting the development of mammary tumours
same,"Tumour size, percentage change from baseline, net group effect",[2]; tamoxifen 1 mg/kg/day orally 4 weeks,increase in tumour size as net group effect
same,Efficacy against further development and progression of mammary tumours,"[2]; tamoxifen 1 mg/kg/day orally 4 weeks, started 8 weeks after DMBA",ineffective
same,Tumour number at necropsy,"[2]; tamoxifen 1 mg/kg/day orally 4 weeks, n=8, 15 at start of treatment",19
same,Palpable tumours developed,"[3]; tamoxifen 1, 2 and 3 mg/kg/day orally","In none of the tamoxifen groups (1, 2, and 3 mg/kg/day) palpable tumours developed"
